Experimental data: patent publication US11633416B1, “Oral formulations of CD73 compounds” (ARCUS BIOSCIENCES, INC., priority 2020, dated 2023)
Read-outs that look alike come from different tables or passages of the source. One block for each compound: values may come before it.

Key:
[1] = Oral exposure in cynomolgus monkeys, compound alone or with excipient in capsules; plasma by LC-MS/MS; format: in vivo; conditions: for Oral bioavailability using calcium chelating excipients: cynomolgus monkeys, capsules, versus compound alone
Source text: The influence of different excipients on the bioavailability of Compound (Ia), Compound 2 and Compound 3 in cynomolgus monkeys was investigated. The excipients tested were sodium phytate, sodium citrate, sodium EDTA, cyclodextrin, sodium taurocholate, sodium polystyrene sulfate, sodium caprate, sodium phosphate, carbomer 971P and palmitoyl carnitine chloride. Generally, an appropriate quantity (as indicated in Table 1) of Compound (Ia), Compound 2 or Compound 3 and an excipient were mixed to homogeneity and transferred to capsules for dosing. In one example, Compound (Ia) (500 mg assay, 1.063 correction factor applied for to account for purity) and 2.75 g of sodium phytate (Sigma) were combined in a mortar and pestle. The mixture was ground to homogeneity then 530 mg of the white powder was transferred to enteric capsules (Size 0) prior to dosing.
[…] Compound (Ia), Compound 2 or Compound 3, either alone, or with excipient, in an enteric capsule was administered via an oral pet piller. Blood samples were collected from a peripheral vessel at designated time points, and centrifuged to obtain plasma.
(§1) Plasma samples obtained at each time point from the subjects were prepared by protein precipitation. An aliquot of 50 μL sample was added with 150 μL acetonitrile containing an internal standard ([[[(2R,3S,4R,5R)-5-[6-chloro-4-[[(1S)-2,2,2-trideuterio-1-(2-fluorophenyl)ethyl]amino]pyrazolo[3,4-b]pyridin-1-yl]-3,4-dihydroxyoxolan-2-yl]-dideuteriomethoxy]-hydroxyphosphoryl]methylphosphonic acid, 200 ng/mL in Acetonitrile). The mixture was vortexed for 15 min and then centrifuged at 4500 rpm for 15 min at 4° C. (Sorvall Legend XTR centrifuge, Thermo Scientific, Langenselbold, Germany). 80 μL of the resulting supernatant was transferred into a new plate and mixed with 160 μL water followed by LC-MS/MS analysis.
(§2) • API 4000 mass spectrometer (Applied Biosystems, Foster City, Calif.) • Shimadzu Nexera X^2 UHPLC System (Shimadzu Scientific Instruments, Canby, Oreg.) Column: SHISEIDO CAPCELL PAK INERT ADME S3 (2.00 mm×50 mm, Part No. 79001) Mobile Phase A: 8.6 mM Triethylamine, 100 mM HFIP (1,1,1,3,3,3-Hexafluoro-2-propanol) in Water Mobile Phase B: 8.6 mM Triethylamine, and 100 mM HFIP in [Acetonitrile:water (95:5, v/v) Needle wash (weak & strong): Acetone:MeCN:Water (80:20:20, v/v/v) Flow Rate: 0.50 mL/min HPLC Gradient:
• Ionization Mode: Electrospray (ESI) • Detection Mode: Negative MRM (Q1/Q3 transitions: m/z 579.0/157.0 for Compound (Ia) or Compound 3; m/z 584.0/157.0 for Internal Standard); (Q1/Q3 transitions m/z 562.2/157.0 for Compound 2; m/z 584.0/157.0 for Internal Standard)

[2] = Oral bioavailability in male Sprague-Dawley rats, compound alone or with excipient in water pH 8 by oral gavage; plasma by LC-MS/MS; format: in vivo; conditions: for Bioavailability (% F): oral gavage
Experimental: The influence of different excipients on the bioavailability of Compound 2 was investigated in Sprague Dawley rats. The excipients tested were Solutol HS 15, soy L-α-phosphatidylcholine, trisodium citrate, sodium caprate, disodium EDTA, and sodium phytate. Generally, 10-30 mg of Compound 2 and the indicated quantity (Table 5) of excipient was combined and dissolved in 5 mL water. The pH was adjusted to a pH of 8 using HCl or NaOH as needed.
Male Sprague-Dawley rats, weighing between 0.27 to 0.32 kg, were fasted overnight prior to dose administration through approximately 4 hours post-dose. Compound 2 was administered orally by orogastric gavage at 5 mL/kg. Blood samples were collected via femoral vein at designated time points, and centrifuged to obtain plasma.
as §1, with “([(2R,3S,4R,5R)-5-[2-chloro-6-(cyclopentylmethylamino)purin-9-yl]-3,4-dihydroxyoxolan-2-yl]methoxymethylphosphonic” for “([[[(2R,3S,4R,5R)-5-[6-chloro-4-[[(1S)-2,2,2-trideuterio-1-(2-fluorophenyl)ethyl]amino]pyrazolo[3,4-b]pyridin-1-yl]-3,4-dihydroxyoxolan-2-yl]-dideuteriomethoxy]-hydroxyphosphoryl]methylphosphonic”
as §2, with “(1,1 1,3,3,3-Hexafluoro-2-propanol)” for “(1,1,1,3,3,3-Hexafluoro-2-propanol)”, “Acetone: MeCN: Water” for “Acetone:MeCN:Water”, “mL/min” for “mL/min HPLC Gradient:”
• Ionization Mode: Electrospray (ESI) • Detection Mode: Negative MRM (Q1/Q3 transitions: m/z 562.2/157.0 for Compound 2; m/z 584.0/157.0 for Internal Standard)

[3] = male, cynomolgus monkey, plasma, po, 50 mg, enteric capsule, with 195 mg sodium citrate, 3 mg SDS, fasted
[4] = male, cynomolgus monkey, plasma, po, 50 mg, enteric capsule, with 275 mg sodium phytate (Sigma-Aldrich, ≥5 mol sodium/mol), fasted
[5] = male, cynomolgus monkey, plasma, po, 50 mg, oral, enteric capsule, dose 50 mg, with 195 mg sodium citrate, 3 mg SDS, fasted, read-out: Cmax
[6] = male, cynomolgus monkey, plasma, po, 50 mg, oral, enteric capsule, dose 50 mg, with 275 mg sodium phytate (Sigma-Aldrich, ≥5 mol sodium/mol), fasted, read-out: Cmax
[7] = male, cynomolgus monkey, plasma, po, 50 mg, Table 3: dose 50 mg, dosed with 195 mg trisodium citrate and 3 mg SDS, enteric capsules
[8] = male, cynomolgus monkey, plasma, po, 50 mg, Table 3: dose 50 mg, dosed with 195 mg trisodium citrate and 3 mg SDS, enteric capsules, read-out: Cmax
[9] = male, cynomolgus monkey, plasma, po, 50 mg, Table 4: dose 50 mg, dosed with 275 mg sodium phytate, enteric capsules
[10] = male, cynomolgus monkey, plasma, po, 50 mg, Table 4: dose 50 mg, dosed with 275 mg sodium phytate, enteric capsules, read-out: Cmax
[11] = oral, enteric capsule, dose 50 mg, with 275 mg sodium phytate (Sigma-Aldrich, ≥5 mol sodium/mol), fasted

SMILES: C[C@H](Nc1nc(Cl)nc2c1cnn2[C@@H]1O[C@H](COP(=O)(O)CP(=O)(O)O)[C@@H](O)[C@H]1O)c1ccccc1 [2 (Na)]
AUC(0-inf) ([1]; male, cynomolgus monkey, plasma, po, 10 mg, enteric capsule, neat, fasted): 918 ng·h/mL
AUC(0-inf) ([1]; male, cynomolgus monkey, plasma, po, 10 mg, enteric capsule, with 195 mg sodium citrate, 3 mg SDS, fasted): 4880 ng·h/mL
AUC(0-inf) ([1]; male, cynomolgus monkey, plasma, po, 10 mg, enteric capsule, with 195 mg sodium citrate, fasted): 8840 ng·h/mL
AUC(0-inf) ([1]; male, cynomolgus monkey, plasma, po, 10 mg, enteric capsule, with 275 mg sodium phytate (Sigma-Aldrich), fasted): 6010 ng·h/mL
Cmax ([1]; male, cynomolgus monkey, plasma, po, 10 mg, oral, enteric capsule, dose 10 mg, neat, fasted, read-out: Cmax): 161 ng/mL
Cmax ([1]; male, cynomolgus monkey, plasma, po, 10 mg, oral, enteric capsule, dose 10 mg, with 195 mg sodium citrate, 3 mg SDS, fasted, read-out: Cmax): 997 ng/mL
Cmax ([1]; male, cynomolgus monkey, plasma, po, 10 mg, oral, enteric capsule, dose 10 mg, with 195 mg sodium citrate, fasted, read-out: Cmax): 791 ng/mL
Cmax ([1]; male, cynomolgus monkey, plasma, po, 10 mg, oral, enteric capsule, dose 10 mg, with 275 mg sodium phytate (Sigma-Aldrich), fasted, read-out: Cmax): 824 ng/mL
AUC(0-inf) [1, 3]: 67100 ng·h/mL
AUC(0-inf) [1, 4]: 105000 ng·h/mL
Cmax [1, 5]: 2530 ng/mL
Cmax [1, 6]: 2320 ng/mL
Exposure Enhancement ([1]; oral, enteric capsule, dose 10 mg, with 195 mg sodium citrate, 3 mg SDS, relative to 10 mg dose of 2(Na) without absorption enhancer): 5.3-fold^e
Exposure Enhancement ([1]; oral, enteric capsule, dose 10 mg, with 195 mg sodium citrate, relative to 10 mg dose of 2(Na) without absorption enhancer): 9.6-fold^e
Exposure Enhancement ([1]; oral, enteric capsule, dose 10 mg, with 275 mg sodium phytate (Sigma-Aldrich), relative to 10 mg dose of 2(Na) without absorption enhancer): 6.6-fold^e

SMILES: C[C@H](Nc1nc(Cl)nc2c1cnn2[C@@H]1O[C@H](COP(=O)(O)CP(=O)(O)O)[C@@H](O)[C@H]1O)c1ccccc1 [2 (Neutral)]
AUC(0-inf) ([1]; male, cynomolgus monkey, plasma, po, 50 mg, enteric capsule, with 195 mg sodium citrate, 6 mg sodium dodecyl sulfate (SDS), fasted): 129000 ng·h/mL
AUC(0-inf) ([1]; male, cynomolgus monkey, plasma, po, 50 mg, gelatin capsule, with 195 mg sodium citrate, 6 mg SDS, fasted): 151000 ng·h/mL
Cmax ([1]; male, cynomolgus monkey, plasma, po, 50 mg, oral, enteric capsule, dose 50 mg, with 195 mg sodium citrate, 6 mg sodium dodecyl sulfate (SDS), fasted, read-out: Cmax): 3140 ng/mL
Cmax ([1]; male, cynomolgus monkey, plasma, po, 50 mg, oral, gelatin capsule, dose 50 mg, with 195 mg sodium citrate, 6 mg SDS, fasted, read-out: Cmax): 3180 ng/mL

SMILES: C[C@H](Nc1cc(Cl)nc2c1cnn2[C@@H]1O[C@H](COP(=O)(O)CP(=O)(O)O)[C@@H](O)[C@H]1O)c1ccc(F)cc1 [3 ( 3Na)]
AUC(0-inf) [1, 3]: 38700 ng·h/mL
AUC(0-inf) [1, 4]: 149000 ng·h/mL
Cmax [1, 5]: 1320 ng/mL
Cmax [1, 6]: 3550 ng/mL

SMILES: C[C@H](Nc1cc(Cl)nc2c1cnn2[C@@H]1O[C@H](COP(=O)(O)CP(=O)(O)O)[C@@H](O)[C@H]1O)c1ccc(F)cc1 [Compound 3]
Oral bioavailability using calcium chelating excipients [1]: Improved
AUC(0-inf) [1, 7]: 38700 ng·h/mL
Cmax [1, 8]: 1320 ng/mL
AUC(0-inf) [1, 9]: 149000 ng·h/mL
Cmax [1, 10]: 3550 ng/mL

Continued, values first:

Oral bioavailability using calcium chelating excipients [1]: Improved
AUC(0-inf) [1, 7]: 67100 ng·h/mL
Cmax [1, 8]: 2530 ng/mL
AUC(0-inf) [1, 9]: 105000 ng·h/mL
Cmax [1, 10]: 2320 ng/mL
Oral bioavailability using calcium chelating excipients ([2]; SD rats, 10-30 mg/kg + excipient in water at pH 8 via oral gavage, 5 mL/kg): Improved
Bioavailability (% F) ([2]; 10 mg/kg, excipient: Sodium phytate (Sigma) 165 mg/SDS 2 mg): 2.0 % F
Bioavailability (% F) ([2]; 10 mg/kg, excipient: Sodium phytate (Sigma, ≥5 mol sodium/mol) 165 mg): 2.3 % F
Bioavailability (% F) ([2]; 10 mg/kg, excipient: Trisodium citrate 64.5 mg/sodium caprate 49 mg): 0.23 % F
Bioavailability (% F) ([2]; 30 mg/kg, excipient (mg/kg): Solutol HS 15, 1,500): 0.015 % F
Bioavailability (% F) ([2]; 30 mg/kg, excipient: Disodium EDTA 5 mg): 0.60 % F
Bioavailability (% F) ([2]; 30 mg/kg, excipient: Disodium EDTA 20 mg): 2.8 % F
Bioavailability (% F) ([2]; 30 mg/kg, excipient: None): 0.03 % F
Bioavailability (% F) ([2]; 30 mg/kg, excipient: Soy L-α-phosphatidylcholine 150 mg): 0.07 % F
Bioavailability (% F) ([2]; 30 mg/kg, excipient: Trisodium citrate 20 mg): 0.10 % F
Bioavailability (% F) ([2]; 30 mg/kg, excipient: Trisodium citrate 64.5 mg): 0.60 % F
SMILES: C[C@H](Nc1nc(Cl)nc2c1cnn2[C@@H]1O[C@H](COP(=O)(O)CP(=O)(O)O)[C@@H](O)[C@H]1O)c1ccccc1 [Compound 2]

Oral bioavailability using calcium chelating excipients [1]: Improved
AUC(0-inf) [1, 7]: 22200 ng·h/mL
Cmax [1, 8]: 922 ng/mL
AUC(0-inf) [1, 9]: 122000 ng·h/mL
Cmax [1, 10]: 3680 ng/mL
SMILES: C[C@H](Nc1cc(Cl)nc2c1cnn2[C@@H]1O[C@H](COP(=O)(O)CP(=O)(O)O)[C@@H](O)[C@H]1O)c1ccccc1F [Compound (Ia), (((((2R,3S,4R,5R)-5-(6-chloro-4-(((S)-1-(2-fluorophenyl)ethyl)amino)-1H-pyrazolo[3,4-b]pyridin-1-yl)-3,4-dihydroxytetrahydrofuran-2-yl)methoxy)(hydroxy)phosphoryl)methyl)phosphonic acid]

Exposure Enhancement ([1]; oral, enteric capsule, dose 50 mg, with 275 mg sodium phytate (Sigma-Aldrich), relative to 50 mg Ia ( 3Na) without absorption enhancer): 7.6-fold^b
AUC0-∞ [1, 11]: 102,000 h*ng/mL
Cmax [1, 11]: 2,790 ng/mL
SMILES: C[C@H](Nc1cc(Cl)nc2c1cnn2[C@@H]1O[C@H](COP(=O)(O)CP(=O)(O)O)[C@@H](O)[C@H]1O)c1ccccc1F [Ia (Neutral), (((((2R,3S,4R,5R)-5-(6-chloro-4-(((S)-1-(2-fluorophenyl)ethyl)amino)-1H-pyrazolo[3,4-b]pyridin-1-yl)-3,4-dihydroxytetrahydrofuran-2-yl)methoxy)(hydroxy)phosphoryl)methyl)phosphonic acid]
